Patent US20160067269A1, “Miltefosin Or Perifosin For Use In The Treatment of IBD” (ACADEMISCH MEDISCH CENTRUM, priority 2013, published 2016)

What was measured:
human patients = conditions: high dosages; cited from earlier work
[1] = test system: SCID mice (C.B-17/lcrHsd-Prkcd); assay: experimental colitis transfer model (CD45RBHigh cells injected into SCID mice); assay type: in vivo, mouse; conditions: 50 mg/kg oral gavage twice a week
Protocol: To study the application of miltefosine as an anti-inflammatory drug, miltefosine was tested in the experimental colitis transfer model. In this model SCID mice, lacking T and B lymphocytes, are injected with only effector T lymphocytes (CD4^+CD45RB^High) omitting regulatory T lymphocytes (CD4^+CD45RB^Low). The absence of the letter causes, over a period of two months, the development of chronic inflammation of the colon.
Mouse CD4 positive lymphocytes were isolated from the spleen of normal mice (Balb/c OlaHsd). The spleen was removed, forced through a cell strainer to obtain a single cell suspension. Erythrocytes were lysed by adding water, quickly followed by PBS. The remaining cells were enriched in CD4 positive cells by negative depletion using magnetic beads specific for B cell (anti-B220), macrophages (anti-Mac-1) and cytotoxic T lymphocytes (anti-CD8). The remaining cell were washed and labeled for CD4 (CD4-PerCP-Cy5) and CD45RB (CD45RB-FITC). Using a FACS sorter the cell were separated in CD4 cells expressing low levels of CD45RB (CD45RB^Low) and high levels of CD45RB (CD45RB^High).
To induce colitis, SCID mice (C.B-17/lcrHsd-Prkcd) were injected with 5·10^5 CD45RB^High cells.
The mice were divided in three groups, each group containing 10 mice. […] Group two and three both received only CD45RB^High cells and developed colitis. Only group three received miltefosine (50 mg/kg) via oral gavage. Treatment started two weeks after the start of the experiment and was given twice a week until the end of the experiment. The mice were weighted three times a week during the entire duration of the experiment.
Part of the colon of each mouse was embedded in paraffin, cut and stained with hematoxylin and eosin (HE). The pathology score takes in account epithelial cell hyperplasia, leukocyte infiltrations, loss of goblet cells, ulceration and cryptabscesses.

[2] = 50 mg/kg per treatment; reported in literature; cited from earlier work

CCCCCCCCCCCCCCCCOP(=O)([O-])OCC[N+](C)(C)C [miltefosine, hexadecyl phosphocholine]
side effects in human patients (human patients): nausea and vomiting
weight loss in two days time ([1]; after day 42): ten
average weight at the end of the experiment ([1]; between the groups): does not differ significantly
average weight of the group versus negative control group ([1]; till day 42): corresponded with the negative control group
effect on bodyweight [2]: can affect bodyweight negatively
